Source: PubChem BioAssay AID328 (DTP/NCI, 2004)
Several values for one entry are separate records, joined by “and”; a condition that tells them apart may be missing. Identical values can stand only once. Toxic doses and inconclusive results are not listed. Residues, ends and D or L forms follow the SMILES beside them. *: point of attachment. Cbz = O=C(OCc1ccccc1)*; Bn = c1ccc(C*)cc1

System: BDF1 mice, P388 leukemia ip, median survival T/C
Test: NCI In Vivo Anticancer Drug Screen. Data for tumor model P388 Leukemia (intraperitoneal) in B6D2F1 (BDF1) mice
Details: endpoint: median survival time, higher = longer survival
Method in brief: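 Transplantable tumour in mice; compound vs vehicle dosing; survival scored; ratio of treated to control reported.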

[1] = dose: 3.12 mg/kg/injection, schedule: Q01DX009 (ip), vehicle: Klucel (hydroxypropylcellulose) (HPC)
[2] = dose: 6.25 mg/kg/injection, schedule: Q01DX009 (ip), vehicle: Klucel (hydroxypropylcellulose) (HPC)
[3] = dose: 25.0 mg/kg/injection, schedule: Q01DX001 (ip), vehicle: Klucel (hydroxypropylcellulose) (HPC)
[4] = dose: 50.0 mg/kg/injection, schedule: Q01DX001 (ip), vehicle: Klucel (hydroxypropylcellulose) (HPC)
[5] = dose: 50.0 mg/kg/injection, schedule: Q04DX003 (ip), vehicle: saline with Tween-80
[6] = dose: 100.0 mg/kg/injection, schedule: Q04DX003 (ip), vehicle: saline with Tween-80
[7] = dose: 25.0 mg/kg/injection, schedule: Q04DX003 (ip), vehicle: saline with Tween-80
[8] = dose: 100.0 mg/kg/injection, schedule: Q04DX003 (ip), vehicle: saline
[9] = dose: 200.0 mg/kg/injection, schedule: Q04DX003 (ip), vehicle: saline with Tween-80
[10] = dose: 400.0 mg/kg/injection, schedule: Q04DX003 (ip), vehicle: saline with Tween-80
[11] = dose: 100.0 mg/kg/injection, schedule: Q01DX001 (ip), vehicle: saline
[12] = dose: 100.0 mg/kg/injection, schedule: Q04DX003 (ip), vehicle: Klucel (hydroxypropylcellulose) (HPC)
[13] = dose: 200.0 mg/kg/injection, schedule: Q04DX003 (ip), vehicle: Klucel (hydroxypropylcellulose) (HPC)
[14] = dose: 400.0 mg/kg/injection, schedule: Q04DX003 (ip), vehicle: Klucel (hydroxypropylcellulose) (HPC)
[15] = dose: 50.0 mg/kg/injection, schedule: Q01DX009 (ip), vehicle: saline with Tween-80
[16] = dose: 100.0 mg/kg/injection, schedule: Q01DX009 (ip), vehicle: saline with Tween-80
[17] = dose: 25.0 mg/kg/injection, schedule: Q01DX009 (ip), vehicle: saline with Tween-80

In the case of `O=S(=O)(Nc1ccc(NS(=O)(=O)c2ccccc2)cc1)c1ccccc1`, the T/C [1] is reported as 100 % of control, the T/C [2] is reported as 100 % of control and the T/C (dose: 12.5 mg/kg/injection, schedule: Q01DX009 (ip), vehicle: Klucel (hydroxypropylcellulose) (HPC)) is reported as 95 % of control. The T/C (dose: 100.0 mg/kg/injection, schedule: Q01DX009 (ip), vehicle: Klucel (hydroxypropylcellulose) (HPC)) was 96 % of control.
`CCN1CCCC(Nc2cc(C)nc(Nc3nc4cc(Cl)c(Cl)cc4[nH]3)n2)C1` (stereo not drawn) was tested, and the T/C (dose: 1.56 mg/kg/injection, schedule: Q01DX009 (ip), vehicle: Klucel (hydroxypropylcellulose) (HPC)) was 100 % of control, the T/C [1] was 90 % of control and the T/C [2] was 100 % of control.
`COc1cc(C=Nc2ccc(Cl)cc2)ccc1N(CCCl)CCCl` was tested, and the T/C (dose: 2.2 mg/kg/injection, schedule: Q01DX009 (ip), vehicle: other) was 162 % of control, the T/C (dose: 3.3 mg/kg/injection, schedule: Q01DX009 (ip), vehicle: other) was 150 % of control and the T/C (dose: 5.0 mg/kg/injection, schedule: Q01DX009 (ip), vehicle: other) was 179 % of control. For the same compound, the T/C (dose: 7.5 mg/kg/injection, schedule: Q01DX009 (ip), vehicle: other) was 183 % of control, the T/C (dose: 22.0 mg/kg/injection, schedule: Q04DX003 (ip), vehicle: other) was 245 % of control and the T/C (dose: 22.0 mg/kg/injection, schedule: Q04DX003 (ip), vehicle: saline) was 113 % of control. For the same compound, the T/C (dose: 33.0 mg/kg/injection, schedule: Q04DX003 (ip), vehicle: other) was 272 % of control, the T/C (dose: 33.0 mg/kg/injection, schedule: Q04DX003 (ip), vehicle: saline) was 100 % of control and the T/C (dose: 50.0 mg/kg/injection, schedule: Q04DX003 (ip), vehicle: other) was 186 % of control. The T/C (dose: 75.0 mg/kg/injection, schedule: Q04DX003 (ip), vehicle: saline) was 181 % of control.
For `Cc1nc2n(c1/C=N/NC(N)=S)CCS2`, the T/C [3] was 102 % of control, the T/C [4] was 98 % of control and the T/C (dose: 100.0 mg/kg/injection, schedule: Q01DX001 (ip), vehicle: Klucel (hydroxypropylcellulose) (HPC)) was 98 % of control.
In the case of `COC(=O)/C(C#N)=C\c1ccccc1`, the T/C [5] is reported as 104 % of control and the T/C [6] is reported as 109 % of control.
In the case of `NC(COc1ccccc1)Cc1ccccc1` (stereo not drawn), the T/C [7] is reported as 113 % of control, the T/C (dose: 25.0 mg/kg/injection, schedule: Q04DX003 (ip), vehicle: suspension in saline) is reported as 90 % of control and the T/C [5] is reported as 123 % of control. For the same compound, the T/C (dose: 50.0 mg/kg/injection, schedule: Q04DX003 (ip), vehicle: suspension in saline) was 90 % of control, the T/C [6] was 105 % of control and the T/C [8] was 109 % of control. The T/C (dose: 100.0 mg/kg/injection, schedule: Q04DX003 (ip), vehicle: suspension in saline) was 98 % of control.
With `Cc1ccc2[nH]c(=S)[nH]c(=S)c2c1` the T/C [6] was 108 % of control, the T/C [9] was 95 % of control and the T/C [10] was 108 % of control.
In the case of `C[n+]1c2ccccc2c(Nc2ccc(NS(=O)(=O)CCCCN=C(N)N)cc2)c2ccc(N)cc21`, the T/C (dose: 3.0 mg/kg/injection, schedule: Q01DX009 (ip), vehicle: water) is reported as 205 % of control and the T/C (dose: 6.0 mg/kg/injection, schedule: Q01DX009 (ip), vehicle: water) is reported as 116 % of control.
`C[N+](C)(C)CCC[n+]1ccc(CCn2ccc3ccccc32)cc1` was tested, and the T/C (dose: 25.0 mg/kg/injection, schedule: Q01DX001 (ip), vehicle: saline) was 100 % of control, the T/C (dose: 50.0 mg/kg/injection, schedule: Q01DX001 (ip), vehicle: saline) was 105 % of control and the T/C [11] was 105 % of control.
In the case of `O=C1SCCC1CO` (stereo not drawn), the T/C [6] is reported as 114 % of control.
In the case of `[NH-][n+]1c2c(nc3ccccc31)-c1cccc3cccc-2c13`, the T/C (dose: 12.5 mg/kg/injection, schedule: Q01DX001 (ip), vehicle: Klucel (hydroxypropylcellulose) (HPC)) is reported as 111 % of control, the T/C [3] is reported as 100 % of control and the T/C [4] is reported as 100 % of control.
`OCCN1CCN(CC/C=C2/c3ccccc3Sc3ccc(C(F)(F)F)cc32)CC1` was tested, and the T/C (dose: 5.0 mg/kg/injection, schedule: Q01DX009 (ip), vehicle: saline) was 101 % of control, the T/C (dose: 10.0 mg/kg/injection, schedule: Q01DX009 (ip), vehicle: saline) was 101 % of control and the T/C (dose: 80.0 mg/kg/injection, schedule: Q04DX003 (ip), vehicle: saline) was 97 % of control.
`Cc1cccc(CCl)c1` was tested, and the T/C (dose: 100.0 mg/kg/injection, schedule: Q04DX003 (ip), vehicle: saline sonified) was 104 % of control, the T/C (dose: 200.0 mg/kg/injection, schedule: Q04DX003 (ip), vehicle: saline sonified) was 109 % of control and the T/C (dose: 400.0 mg/kg/injection, schedule: Q04DX003 (ip), vehicle: saline sonified) was 100 % of control.
With `CC(C)CC(NC(=O)C1CCCN1C(=O)C(CSCc1ccccc1)NC(=O)OCc1ccccc1)C(=O)NCC(N)=O` (stereo not drawn) (Cbz-C(Bn)PLG-NH2; configuration not given here) the T/C [12] was 99 % of control, the T/C [13] was 95 % of control and the T/C [14] was 87 % of control.
In the case of `COc1cc[n+]([O-])cc1`, the T/C [8] is reported as 95 % of control, the T/C (dose: 200.0 mg/kg/injection, schedule: Q04DX003 (ip), vehicle: saline) is reported as 95 % of control and the T/C (dose: 400.0 mg/kg/injection, schedule: Q04DX003 (ip), vehicle: saline) is reported as 100 % of control.
With `O=C1NC(=S)S/C1=C\c1ccncc1` the T/C [15] was 113 % of control, the T/C [16] was 106 % of control and the T/C (dose: 200.0 mg/kg/injection, schedule: Q01DX009 (ip), vehicle: saline with Tween-80) was 106 % of control. The T/C (dose: 400.0 mg/kg/injection, schedule: Q01DX009 (ip), vehicle: saline with Tween-80) was 106 % of control.
`COc1ccc(S(=O)(=O)c2ccccc2)c2nonc12` was tested, and the T/C [17] was 90 % of control, the T/C [15] was 86 % of control and the T/C [16] was 92 % of control.
`C=C(C)C12OC3(c4ccccc4)OC1C1C4OC4(CO)C(O)C4(O)C(=O)C(C)=CC4C1(O3)C(C)C2OC(=O)/C=C/C=C/CCCCC` (stereo not drawn) was tested, and the T/C (dose: 6.3 micrograms/kg/injection, schedule: Q## X009 (ip), vehicle: saline + alcohol) was 107 % of control, the T/C (dose: 12.5 micrograms/kg/injection, schedule: Q## X009 (ip), vehicle: saline + alcohol) was 103 % of control and the T/C (dose: 25.0 micrograms/kg/injection, schedule: Q## X009 (ip), vehicle: saline + alcohol) was 103 % of control. The T/C (dose: 200.0 micrograms/kg/injection, schedule: Q## X009 (ip), vehicle: saline + alcohol) was 106 % of control.
In the case of `O=[N+]([O-])c1ccc(/C=C/c2ccccn2)s1`, the T/C [12] is reported as 100 % of control, the T/C [13] is reported as 100 % of control and the T/C [14] is reported as 100 % of control.
With `O=C(O)CCSc1ncnc2nc[nH]c12` the T/C (dose: 12.5 mg/kg/injection, schedule: Q01DX009 (ip), vehicle: saline with Tween-80) was 104 % of control, the T/C [17] was 109 % of control and the T/C [15] was 109 % of control. The T/C [6] was 100 % of control, the T/C [9] was 113 % of control and the T/C [10] was 104 % of control.
For `ICC1(CI)CCCCC1`, the T/C (dose: 100.0 mg/kg/injection, schedule: Q01DX001 (ip), vehicle: saline with Tween-80) was 100 % of control and the T/C (dose: 200.0 mg/kg/injection, schedule: Q01DX001 (ip), vehicle: saline with Tween-80) was 108 % of control.
`NC1(C(=O)O)CCCc2ccc(N(CCCl)CCCl)cc21` (stereo not drawn) was tested, and the T/C (dose: 16.5 mg/kg/injection, schedule: Q04DX003 (ip), vehicle: saline with Tween-80) was 263 % of control and 272 % of control, the T/C [7] was 272 % of control and the T/C (dose: 37.5 mg/kg/injection, schedule: Q04DX003 (ip), vehicle: saline with Tween-80) was 177 % of control.
With `Nc1ccc(OCc2ccc(S(=O)(=O)F)c(Cl)c2)c(Cl)c1` the T/C [11] was 103 % of control, the T/C (dose: 200.0 mg/kg/injection, schedule: Q01DX001 (ip), vehicle: saline) was 100 % of control and the T/C (dose: 400.0 mg/kg/injection, schedule: Q01DX001 (ip), vehicle: saline) was 92 % of control.
With `Cc1nc(Br)c2cnccn12` the T/C (dose: 12.5 mg/kg/injection, schedule: Q01DX009 (ip), vehicle: saline) was 118 % of control and the T/C (dose: 25.0 mg/kg/injection, schedule: Q01DX009 (ip), vehicle: saline) was 109 % of control.
In the case of `CCCN(CCC)CC(O)c1cc2cc(C(F)(F)F)cc(C(F)(F)F)c2c2ccccc12` (stereo not drawn), the T/C [15] is reported as 107 % of control and the T/C [16] is reported as 114 % of control.
`CCC1SC(=S)N(c2ccc(S(N)(=O)=O)cc2)C1=O` (stereo not drawn) was tested, and the T/C (dose: 33.75 mg/kg/injection, schedule: Q01DX009 (ip), vehicle: saline with Tween-80) was 96 % of control, the T/C (dose: 67.5 mg/kg/injection, schedule: Q01DX009 (ip), vehicle: saline with Tween-80) was 97 % of control and the T/C (dose: 135.0 mg/kg/injection, schedule: Q01DX009 (ip), vehicle: saline with Tween-80) was 97 % of control.
